In publication PMC9510126, “Hydrophobicity is a key determinant in the activity of arginine-rich cell penetrating peptides” (Scientific Reports, 2022):
Ends that are not written are not given here. * marks the point of attachment. carboxyfluorescein = carboxyfluorescein fluorophore coupled to the lysine ε-amine; DEAC = CCN(CC)c1ccc2cc(C(=O)*)c(=O)oc2c1

Key:
MDA-MB-231 cells [1] = test: Delivery of TMR-k5 probe into live cells (nuclear staining); type: cell-based, human; settings: 1 h, biological triplicates; for TMR-k5 delivery activity (cells with TMR-k5 nuclear staining): MDA-MB-231, d(X)TAT at various concentrations + TMR-k5 20 μM, fluorescence microscopy; for d(X)TAT concentration at which delivery is achieved in a high percentage of cells: MDA-MB-231, TMR-k5 20 μM
From the text: To test the relative delivery efficiency of the d(X)TAT peptides, the cell lines MDA-MB-231 (epithelial-like, human breast cancer, spindle-shaped) and Neuro-2a (mouse neuroblastoma with neuronal and amoeboid stem cell morphology) were chosen. These cell lines are routinely used in cancer research, neuroscience, and toxicology. In the context of this study, we rationalized that the distinct differences in origin and characteristics between MDA-MB-231 and Neuro-2a properties may be useful to assess the generality of the results obtained. MDA-MB-231 or Neuro-2a cells were incubated with d(X)TAT peptides at various concentrations and TMR-k5 (20 μM) for 1 h. Cells were then washed, incubated with the DNA stain Hoechst and the live/dead marker SYTOX green (or SYTOX blue), and imaged by fluorescence microscopy. The localization of TMR-k5 in individual nuclei was then assessed by measuring the overlap between TMR and Hoechst signals (Fig. 2, Figure S13). […] This is because, in our experience, dfTAT and dfTAT analogs display a threshold behavior where, below a certain endosomal concentration, endosomal leakage is not achieved. In contrast above this threshold most late endosomes are permeabilized. […] Our rationale was therefore to titrate cells with different concentrations of d(X)TAT agents, monitor how many cells display cytosolic/nuclear delivery of TMR-k5, and compare the different d(X)TAT peptides.
MDA-MB-231 and Neuro2a cells obtained from ATCC (breast cancer-derived epithelial) were cultured in humidified atmosphere at 5% CO2 and 37 °C. Cells were seeded in plastic 48-well plates (Fisher) for quantitative analysis or 8-well Labtek II plates (Fisher) for qualitative imaging at 100× magnification. The cells were grown to 80–90% confluency in a 37 °C humidified atmosphere containing 5% CO2. Cells were washed three times with Leibovitz’s L15 media (L15) (Fisher). Cells were then incubated with peptide and 20 µM of the TMR-k5 pentalysine probe at 37 °C for 1 h. This was followed by washing the cells three times with L15 supplemented with heparin (Sigma-Aldrich) (1 mg/mL) and an extra L15 wash. […] Additionally, the cell permeable dye Hoechst 33342 (Thermo Fisher Scientific o) was used for nuclear staining. Cells were imaged using an EVOS FL Auto 2 inverted microscope (Thermo Fisher Scientific). The microscope is equipped with a heating chamber maintained at 37 °C. Images were acquired using bright field imaging and five fluorescence filter sets: CFP (Ex = 436 ± 10 nm, Em = 480 ± 20 nm), RFP (Ex = 560 ± 20 nm, Em = 630 ± 35 nm), FITC (Ex = 488 ± 10 nm Em = 520 ± 20 nm), DAPI (Ex = 350 ± 50 nm, Em = 460 ± 25 nm), […]. For image viewing and processing individual images, the Celleste 4.0 software (Thermo Fisher Scientific) was used. Nuclear regions in 20× images where identified using Hoechst staining (the quantification process is described in Figure S13). The intensity of these objects in the TMR channel was then determined using the Celleste software. Cells stained by the SYTOX or DRAQ dyes were considered dead and not counted as positive for delivery. Cells displaying a nuclear TMR-k5 fluorescence above the fluorescence threshold determined for TMR-k5 alone were considered positive for delivery (if excluding SYTOX or DRAQ7 stain, and if visually showing stained nucleoli for confirmation of intracellular localization). The percentage of cells positive for TMR-k5 nuclear staining was then calculated, using Hoechst-stained cells to count the total number of cells present. […] Instead, this assay quantifies the number of cells in which the nuclear fluorescence of TMR-k5 is above a detection threshold. This threshold is dependent on the microscope, imaging conditions, and the concentration of TMR-k5 used during incubation (Figure S13). The reproducibility of all the experiments was assessed by performing experiments with independent batches of cell cultures on three different days (i.e., biological triplicates). […]

Neuro-2a cells = test: Delivery inhibition with dominant negative rab7 or CytoD; type: cell-based, mouse; settings: for cells with TMR-k5 delivery, EGFP-DN-rab7 transfected / nuclear staining of delivered TMR-k5 in cells transfected with EGFP-DN-rab7: Neuro-2a (Fig. 4A), TMR-k5 20 μM, 1 h; for nuclear staining of delivered TMR-k5 in cells transfected with EGFP-DN-rab7: biological triplicates; for cells positive for TMR-k5 nuclear staining in the presence of cytochalasin D / delivery of TMR-k5 in the presence of cytochalasin D: cytoD 20 μM, 30 min pre-incubation and present during 1 h delivery
MDA-MB-231 cells [2] = test: Staining of endosomes with LysoTracker (puncta per cell); type: cell-based, human; settings: for lysotracker-positive puncta per cell 12 h after incubation: MDA-MB-231, 1 h with peptide 1.5 μM, then 12 h in DMEM; for lysotracker stained endosomes (puncta per cell) immediately after incubation: MDA-MB-231, 1 h with peptide (X = K(Ac), WW, FFLIP at 10, 1.5, 1.5 μM), LysoTracker Green DND-26 500 nM 5 min, biological triplicates; for lysotracker stained puncta, control agents: MDA-MB-231, LLOME 1 mM 10 min, bafilomycin 1 µM 4 h
Experimental: Given that hydrophobicity of the d(X)TAT peptides appears to contribute to their membrane permeation activities, we next sought to establish whether this relationship could be recapitulated with membrane models, i.e. lipid bilayers. To establish which membrane system to test, we first aimed to test whether d(X)TAT peptides generally recapitulate the mechanism of cell entry previously determined with dfTAT. For this purpose, the delivery of TMR-k5 was performed in cells transfected with dominant-negative (DN) rab7(T22N), a protein that disrupts trafficking from early endosomes to late endosomes[29],[30]. For these experiments, d(WW)TAT and d(FFLIP)TAT were chosen as two “high activity/hydrophobicity” d(X)TAT representatives. […] In this case, approximately 5% of cells remained positive for TMR-k5 nuclear staining. […] To further probe the cell penetration mechanism, the number of endosomal organelles stained by Lysotracker in cells before and after delivery was quantified. The rationale behind this assay is that lysotracker accumulates in acidified organelles, typically late endosomes and lysosomes, that endosomal membrane leakage causes an increase of endosomal pH (presumably via leakage of luminal H^+ into the cytosol), and that, consequently, endosomes rendered potentially leaky by d(X)TAT peptides will not be stained by lysotracker.
For the quantification of acidic vesicles, cells were treated with LysoTracker Green DND-26 (500 nM) for 5 min. Alternatively, cells were pretreated with L-Leu-L-Leu methyl ester (LLOME; Sigma-Aldrich) incubated at 1 mM for 10 min, or bafilomycin (Sigma-Aldrich) at 1 µM for 4 h, and then stained with LysoTracker. Likewise, cells were pretreated with d(X)TAT peptides (X = K(Ac), WW, or FFLIP at 10, 1.5, and 1.5 μM) for 1 h. Cells were then washed an stained with LysoTracker immediately or after 12 h incubation in DMEM. For all conditions, fluorescence microscopy images were acquired using the 100× objective on an Olympus IX-81 microscope. ImageJ was used to calculate the number of LysoTracker-stained puncta per cell, as well as the area of each individual puncta. This analysis was performed for 50 cells imaged for each condition and reproduced in biological triplicates.

d(F)TAT: disulfide dimer of CXRKKRRQRRRG with X = F (CFRKKRRQRRRG-NH2; also: disulfide dimer)
TMR-k5 delivery activity (cells with TMR-k5 nuclear staining) (MDA-MB-231 cells [1]): little to no TMR-k5 delivery is detected

d(W)TAT: disulfide dimer of CXRKKRRQRRRG with X = W (CWRKKRRQRRRG-NH2; also: disulfide dimer)
TMR-k5 delivery activity (cells with TMR-k5 nuclear staining) (MDA-MB-231 cells [1]): little to no TMR-k5 delivery is detected

d(WW)TAT: disulfide dimer of CXRKKRRQRRRG with X = WW
d(X)TAT concentration at which delivery is achieved in a high percentage of cells (MDA-MB-231 cells [1]): < 3 µM
cells with TMR-k5 delivery, EGFP-DN-rab7 transfected (Neuro-2a cells): 20%
nuclear staining of delivered TMR-k5 in cells transfected with EGFP-DN-rab7 (Neuro-2a cells): markedly reduced
cells positive for TMR-k5 nuclear staining in the presence of cytochalasin D (Neuro-2a cells): approximately 5%
delivery of TMR-k5 in the presence of cytochalasin D (Neuro-2a cells): significantly reduced
lysotracker-positive puncta per cell 12 h after incubation (MDA-MB-231 cells [2]): restored to control level
lysotracker stained endosomes (puncta per cell) immediately after incubation (MDA-MB-231 cells [2]): caused a reduction in lysotracker stained endosomes

d(K(Fl))TAT: disulfide dimer of CXRKKRRQRRRG with X = lysine conjugated to carboxyfluorescein (CK(carboxyfluorescein)RKKRRQRRRG-NH2; also: disulfide dimer)
d(X)TAT concentration at which delivery is achieved in a high percentage of cells (MDA-MB-231 cells [1]): > 5 µM

CO/C1=C\C(C)=C\[C@@H](C)[C@@H](O)[C@@H](C)C/C(C)=C/C=C/[C@H](OC)[C@@H]([C@@H](C)[C@@H](O)[C@H](C)[C@@]2(O)C[C@@H](O)[C@H](C)[C@@H](C(C)C)O2)OC1=O [bafilomycin, reference compound]
lysotracker stained puncta, control agents (MDA-MB-231 cells [2]): reduced the number of lysotracker stained puncta

d(FFLIP)TAT: disulfide dimer of CXRKKRRQRRRG with X = FFLIP (penetration accelerating sequence, Pas)
d(X)TAT concentration at which delivery is achieved in a high percentage of cells (MDA-MB-231 cells [1]): < 3 µM
cells with TMR-k5 delivery, EGFP-DN-rab7 transfected (Neuro-2a cells): 20%
nuclear staining of delivered TMR-k5 in cells transfected with EGFP-DN-rab7 (Neuro-2a cells): markedly reduced
cells positive for TMR-k5 nuclear staining in the presence of cytochalasin D (Neuro-2a cells): approximately 5%
delivery of TMR-k5 in the presence of cytochalasin D (Neuro-2a cells): significantly reduced
lysotracker-positive puncta per cell 12 h after incubation (MDA-MB-231 cells [2]): restored to control level
lysotracker stained endosomes (puncta per cell) immediately after incubation (MDA-MB-231 cells [2]): caused a reduction in lysotracker stained endosomes

d(LL)TAT: disulfide dimer of CXRKKRRQRRRG with X = LL
d(X)TAT concentration at which delivery is achieved in a high percentage of cells (MDA-MB-231 cells [1]): > 5 µM

d(YFIL)TAT: disulfide dimer of CXRKKRRQRRRG with X = YFIL
d(X)TAT concentration at which delivery is achieved in a high percentage of cells (MDA-MB-231 cells [1]): < 3 µM

COC(=O)[C@H](CC(C)C)NC(=O)[C@@H](N)CC(C)C [LLOME, L-Leucine-L-Leucine methyl ester, reference compound]
lysotracker stained puncta, control agents (MDA-MB-231 cells [2]): reduced the number of lysotracker stained puncta

d(Y)TAT: disulfide dimer of CXRKKRRQRRRG with X = Y (CYRKKRRQRRRG-NH2; also: disulfide dimer)
TMR-k5 delivery activity (cells with TMR-k5 nuclear staining) (MDA-MB-231 cells [1]): little to no TMR-k5 delivery is detected

d(K(DEAC))TAT: disulfide dimer of CXRKKRRQRRRG with X = lysine conjugated to 7-diethylaminocoumarin-3-carboxylic acid (CK(DEAC)RKKRRQRRRG-NH2; also: disulfide dimer)
d(X)TAT concentration at which delivery is achieved in a high percentage of cells (MDA-MB-231 cells [1]): < 3 µM
